Article PMC5011342, “A high throughput drug screening assay to identify compounds that promote oligodendrocyte differentiation using acutely dissociated and purified oligodendrocyte precursor cells” (BMC Research Notes, 2016)
Read-outs that look alike come from different tables or passages of the source.

Tests used:
expanded OPCs = experiment: cells; conditions: for viability at 0.1 µM / viability at 1 µM / viability at 10 µM: Rattus norvegicus, 72 h
In short: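 Expanded OPCs seeded at 10,000 cells/well in differentiation media, then exposed to NCC library compounds at 10, 1 and 0.1 µM (quadruplicate, 0.1% DMSO) for three days. Viability read as alamarBlue fluorescence (560/590 nm) after 4 h at 37 °C; tunicamycin 5 ng/ml served as toxicity control.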

[1] = test system: acutely dissociated and purified rat OPCs; experiment: Acute OL differentiation assay (MBP expression/cell, immunofluorescent image quantification); format: cell-based; conditions: for activation at 2 µM / activation at 10 µM / activation at 0.4 µM: Rattus norvegicus
In short: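 Oligodendrocyte precursor cells were enriched from P6-P7 Sprague–Dawley rat brains by immunopanning (RAN-2 and GalC depletion, O4 selection), plated at 5000 cells/well in serum-free, mitogen-free differentiation media on PDL/laminin 96-well view plates, centrifuged at 200×g, and pre-incubated 1–2 h before test compounds were added in quadruplicate. On DIV4, cells were fixed, stained for MBP and DAPI, imaged automatically, and MBP expression per cell was quantified.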

[2] = read-out: 0.1 µM (% DMSO), alamarBlue viability of expanded OPCs, compound at 0.1 µM, sheet All Tox data
[3] = read-out: 1 µM (% DMSO), alamarBlue viability of expanded OPCs, compound at 1 µM, sheet All Tox data
[4] = read-out: 10 µM (% DMSO), alamarBlue viability of expanded OPCs, compound at 10 µM, sheet All Tox data
[5] = 2 uM test compound, relative to quetiapine, sheet "All OLga data", read-out: OL differentiation, 2 uM (% Quet)
[6] = 10 uM test compound, relative to quetiapine, sheet "All OLga data", read-out: OL differentiation, 10 uM (% Quet)
[7] = read-out: 0.1 µM (% DMSO), alamarBlue viability, NCC library compound at 0.1 µM, sheet "All Tox data"
[8] = read-out: 1 µM (% DMSO), alamarBlue viability, NCC library compound at 1 µM, sheet "All Tox data"
[9] = read-out: 10 µM (% DMSO), alamarBlue viability, NCC library compound at 10 µM, sheet "All Tox data"
[10] = 0.4 uM test compound, relative to quetiapine, sheet "All OLga data", read-out: OL differentiation, 0.4 uM (% Quet)
[11] = alamarBlue viability of expanded OPCs, compound at 0.1 µM, relative to DMSO control
[12] = alamarBlue viability of expanded OPCs, compound at 1 µM, relative to DMSO control
[13] = alamarBlue viability of expanded OPCs, compound at 10 µM, relative to DMSO control
[14] = test compound at 2 uM, MBP expression relative to quetiapine, NCC library screen, sheet "All OLga data", read-out: 2 uM (% Quet)
[15] = test compound at 10 uM, MBP expression relative to quetiapine, NCC library screen, sheet "All OLga data", read-out: 10 uM (% Quet)
[16] = test compound at 2 uM, NCC library screen, sheet "All OLga data", relative to quetiapine, read-out: 2 uM (% Quet)
[17] = test compound at 0.4 uM, NCC library screen, sheet "All OLga data", relative to quetiapine, read-out: 0.4 uM (% Quet)

SMILES	viability at 0.1 µM (expanded OPCs; [2]) [%]	viability at 1 µM (expanded OPCs; [3]) [%]	viability at 10 µM (expanded OPCs; [4]) [%]	activation at 2 µM [1, 5] [%]	activation at 10 µM [1, 6] [%]	further results
C=CC[C@@H]1/C=C(\C)C[C@H](C)C[C@H](OC)[C@H]2O[C@@](O)(C(=O)C(=O)N3CCCC[C@H]3C(=O)O[C@H](/C(C)=C/[C@@H]3CC[C@@H](O)[C@H](OC)C3)[C@H](C)[C@@H](O)CC1=O)[C@H](C)C[C@@H]2OC [Tacrolimus]	94.6	102	109	-39.9	-53.9	
C=C1/C(=C\C=C2/CCC[C@]3(C)[C@@H]([C@H](C)CCCC(C)(C)O)CC[C@@H]23)C[C@@H](O)C[C@@H]1O [Calcitriol]				30.3		viability at 0.1 µM (expanded OPCs; [7]): 99.4%; viability at 1 µM (expanded OPCs; [8]): 108%; viability at 10 µM (expanded OPCs; [9]): 11%; activation at 0.4 µM [1, 10]: 8.9%
COC1=C(OC)C(=O)C(CCCCCCCCCCO)=C(C)C1=O [Idebenone]	99.7	80.9	11			activation at 0.4 µM [1, 10]: -11.1%
COc1ccc(C2CNC(=O)C2)cc1OC1CCCC1 (stereo not shown) [Rolipram]	97.1	92.8	86.8	11.2	-14.2	
COc1cc2nc(N(C)CCCNC(=O)C3CCCO3)nc(N)c2cc1OC (stereo not shown) [Alfuzosin]	90.1	89.6	86.6	-11.1	-32.5	
Nc1nc2c(ncn2CCC(CO)CO)c(=O)[nH]1 [Penciclovir]				-3.5	0.01	viability at 0.1 µM (expanded OPCs; [7]): 100%; viability at 1 µM (expanded OPCs; [8]): 98%; viability at 10 µM (expanded OPCs; [9]): 90.7%
NS(=O)(=O)c1cc2c(cc1C(F)(F)F)NC(Cc1ccccc1)NS2(=O)=O (stereo not shown) [Bendroflumethiazide]						0.1 µM (% DMSO) (expanded OPCs; [11]): 95.4 % DMSO; 1 µM (% DMSO) (expanded OPCs; [12]): 93.1 % DMSO; 10 µM (% DMSO) (expanded OPCs; [13]): 98.5 % DMSO; activation at 2 µM [1, 14]: -41.7%; activation at 10 µM [1, 15]: -47.6%
CCOC(=O)N1CCC(=C2c3ccc(Cl)cc3CCc3cccnc32)CC1 [Loratadine]	90.8	77.7	13.9	-36.8		activation at 0.4 µM [1, 10]: 5.6%
O=C1c2c(O)cc(O)cc2OC(c2ccc(O)c(O)c2)C1O (stereo not shown) [Distylin]						0.1 µM (% DMSO) (expanded OPCs; alamarBlue viability of expanded OPCs, compound at 0.1 µM, sheet All Tox data): 109.5 % DMSO; 1 µM (% DMSO) (expanded OPCs; alamarBlue viability of expanded OPCs, compound at 1 µM, sheet All Tox data): 92.1 % DMSO; 10 µM (% DMSO) (expanded OPCs; alamarBlue viability of expanded OPCs, compound at 10 µM, sheet All Tox data): 99.3 % DMSO; OL differentiation, 2 uM (% Quet) ([1]; 2 uM test compound, relative to quetiapine, sheet "All OLga data"): 7.2 % Quet; OL differentiation, 10 uM (% Quet) ([1]; 10 uM test compound, relative to quetiapine, sheet "All OLga data"): -26.1 % Quet
CCC(=O)NS(=O)(=O)c1ccc(-c2c(-c3ccccc3)noc2C)cc1 [Parecoxib]						viability at 0.1 µM (expanded OPCs; [7]): 90.9%; viability at 1 µM (expanded OPCs; [8]): 87.2%; viability at 10 µM (expanded OPCs; [9]): 95.5%; activation at 2 µM [1, 16]: -1.5%; activation at 10 µM ([1]; test compound at 10 uM, NCC library screen, sheet "All OLga data", relative to quetiapine, read-out: 10 uM (% Quet)): -3%
Cc1ncc([N+](=O)[O-])n1CCO [Metronidazole]	84.6	88.7	79.3	0.09	24.8	
Nc1[nH]c(=O)ncc1F [Flucytosine]	98.2	90.7	99.4	-1.1	-1	
O=C(O)CCCc1ccc(N(CCCl)CCCl)cc1 [Chlorambucil]						viability at 0.1 µM (expanded OPCs; read-out: 0.1 µM (% DMSO)): 88%; viability at 1 µM (expanded OPCs; read-out: 1 µM (% DMSO)): 80.8%; viability at 10 µM (expanded OPCs; read-out: 10 µM (% DMSO)): 57.4%; activation at 2 µM ([1]; read-out: 2 uM (% Quet)): -18.6%; activation at 10 µM ([1]; read-out: 10 uM (% Quet)): -105%
Cc1onc(-c2ccccc2)c1-c1ccc(S(N)(=O)=O)cc1 [Valdecoxib]	109	104	105	8.7	-33.1	
CC(CCc1ccccc1)NCC(O)c1ccc(O)c(C(N)=O)c1 (stereo not shown) [Labetalol]						viability at 0.1 µM (expanded OPCs; [7]): 92.7%; viability at 1 µM (expanded OPCs; [8]): 79.2%; viability at 10 µM (expanded OPCs; [9]): 47.3%; activation at 0.4 µM [1, 17]: -5.2%; activation at 2 µM [1, 16]: -15.3%
CO[C@H]1O[C@@H]2O[C@@]3(C)CC[C@H]4[C@H](C)CC[C@@H]([C@H]1C)[C@@]24OO3 [Artemethe]						0.1 µM (% DMSO) (expanded OPCs; alamarBlue viability, NCC library compound at 0.1 µM, sheet "All Tox data"): 81.3 % DMSO; 1 µM (% DMSO) (expanded OPCs; alamarBlue viability, NCC library compound at 1 µM, sheet "All Tox data"): 76.5 % DMSO; 10 µM (% DMSO) (expanded OPCs; alamarBlue viability, NCC library compound at 10 µM, sheet "All Tox data"): 77.8 % DMSO; 2 uM (% Quet) ([1]; test compound at 2 uM, NCC library screen, sheet "All OLga data", relative to quetiapine): -5.4 % Quet; 10 uM (% Quet) ([1]; test compound at 10 uM, NCC library screen, sheet "All OLga data", relative to quetiapine): -21.6 % Quet
CC(=O)OCC(=O)[C@@]1(O)CC[C@H]2[C@@H]3CCC4=CC(=O)C=C[C@]4(C)[C@H]3[C@@H](O)C[C@@]21C [Prednisolone acetate]						0.1 µM (% DMSO) (expanded OPCs; [11]): 112.3 % DMSO; 1 µM (% DMSO) (expanded OPCs; [12]): 112.6 % DMSO; 10 µM (% DMSO) (expanded OPCs; [13]): 109.9 % DMSO; activation at 2 µM [1, 14]: -3.3%; activation at 10 µM [1, 15]: -37.1%
CC(C)(C)NC(=O)[C@H]1CC[C@H]2[C@@H]3CC[C@H]4NC(=O)C=C[C@]4(C)[C@H]3CC[C@]12C [Finasteride]	83.3	85.8	85.3	-14.4	-17.4	
COc1cc(OC)c(C(=O)CCCN2CCCC2)c(OC)c1 [Buflomedil]	105	97.6	124	-16.4	24.4	
CC(Cc1ccccc1)(NC(=O)CN)c1ccccc1 (stereo not shown) [Remacemide]				4.8		viability at 0.1 µM (expanded OPCs; [7]): 113%; viability at 1 µM (expanded OPCs; [8]): 88.6%; viability at 10 µM (expanded OPCs; [9]): 44.7%; activation at 0.4 µM [1, 10]: 5.6%
C[C@@](Cc1ccc(O)c(O)c1)(NN)C(=O)O [Carbidopa]						0.1 µM (% DMSO) (expanded OPCs; [11]): 108.9 % DMSO; 1 µM (% DMSO) (expanded OPCs; [12]): 101.2 % DMSO; 10 µM (% DMSO) (expanded OPCs; [13]): 82.3 % DMSO; activation at 2 µM [1, 14]: -35.6%; activation at 10 µM [1, 15]: -121%
Nc1c2c(nc3ccccc13)CCCC2 [Tacrine]	80.5	80	77.8	-10.2	2.8	
C#C[C@]1(O)CC[C@H]2[C@@H]3CCC4=Cc5oncc5C[C@]4(C)[C@H]3CC[C@@]21C [Danazol]						0.1 µM (% DMSO) (expanded OPCs; [11]): 95.3 % DMSO; 1 µM (% DMSO) (expanded OPCs; [12]): 92.4 % DMSO; 10 µM (% DMSO) (expanded OPCs; [13]): 47.1 % DMSO; activation at 0.4 µM [1, 17]: 9.4%; activation at 2 µM [1, 16]: 24.1%
CN1CCN(c2c(F)cc3c(=O)c(C(=O)O)cn4c3c2SCC4)CC1 [Rufloxacin]	98.3	89.1	103	-26.4	7	
COc1ccnc(C[S+]([O-])c2nc3ccc(OC(F)F)cc3[nH]2)c1OC (stereo not shown) [Pantoprazole]	94.1	91.1	95.2	8.8	-5.3	
C[C@H]1C[C@@H]2[C@H]([C@@H](O)C[C@@]3(C)[C@H]2CC[C@]3(O)C(=O)CO)[C@@]2(C)C=CC(=O)C=C12 [Methylprednisolone]						0.1 µM (% DMSO) (expanded OPCs; [11]): 115.7 % DMSO; 1 µM (% DMSO) (expanded OPCs; [12]): 111.5 % DMSO; 10 µM (% DMSO) (expanded OPCs; [13]): 102.3 % DMSO; activation at 2 µM [1, 14]: -2.6%; activation at 10 µM [1, 15]: -32.2%
CN(C)CCC=C1c2ccccc2COc2ccccc21 [Doxepin]	81.5	85	64.4	47.3	37.1	0.1 µM (% DMSO) (expanded OPCs; [11]): 109.3 % DMSO; 1 µM (% DMSO) (expanded OPCs; [12]): 91.6 % DMSO; 10 µM (% DMSO) (expanded OPCs; [13]): 52.1 % DMSO; activation at 0.4 µM [1, 17]: 2.7%; activation at 2 µM [1, 16]: 36%
